# Experimental data from EP2929883A1, “Pyrazole derivatives as dihydroorotate dehydrogenase (DHODH) inhibitors” (INSTITUT PASTEUR, priority 2014, dated 2015).
# Tested on: measles virus
# Assay: microbe, parasite or virus in culture
# Details: Measles morbillivirus, 24 h
row,Structure (SMILES),MIC50
1,"Cc1c(Oc2c(F)cccc2F)c(OC(C)C)nn1-c1cnc(Br)cn1 [example 48, 2-bromo-5-(4-(2,6-difluorophenoxy)-3-isopropoxy-5-methyl-1H-pyrazol-1-yl)pyrazine]",0.5 to 5 µM
2,"CCc1cnc(-n2nc(CC(C)C)c(Cc3ccccc3)c2C)nc1 [example 121, 2-(4-benzyl-3-isobutyl-5-methyl-1H-pyrazol-1-yl)-5-ethylpyrimidine]",0.0005 to 0.05 µM
3,"COCc1c(Cc2ccccc2)c(OC(C)C)nn1-c1ncc(C2CC2)cn1 [example 168, 2-(4-benzyl-3-isopropoxy-5-(methoxymethyl)-1H-pyrazol-1-yl)-5-cyclopropylpyrimidine]",0.05 to 0.5 µM
4,"CCOc1nn(-c2ccc(C(C)(C)O)cn2)c(C)c1Cc1ccccc1 [example 34, 2-(6-(4-benzyl-3-ethoxy-5-methyl-1H-pyrazol-1-yl)pyridin-3-yl)propan-2-ol]",> 5 µM
5,"CCOc1nn(-c2ncc(CC)cn2)c(C)c1Oc1cccc(Cl)c1Cl [example 80, 2-(4-(2,3-dichlorophenoxy)-3-ethoxy-5-methyl-1H-pyrazol-1-yl)-5-ethylpyrimidine]",0.05 to 0.5 µM
6,"CCOc1nn(-c2ncc(C)cn2)c(C)c1Cc1ccccc1 [example 171, 2-(4-benzyl-3-ethoxy-5-methyl-1H-pyrazol-1-yl)-5-methylpyrimidine]",0.0005 to 0.05 µM
7,"CC(C)Oc1nn(-c2ccc(C3CC3)cn2)cc1S(=O)(=O)c1ccccc1 [example 180, 5-cyclopropyl-2-(3-isopropoxy-4-(phenylsulfonyl)-1H-pyrazol-1-yl)pyridine]",0.05 to 0.5 µM
8,"Cc1c(Oc2cccnc2)c(OC(C)C)nn1-c1ncc(C2CC2)cn1 [example 110, 5-cyclopropyl-2-(3-isopropoxy-5-methyl-4-(pyridin-3-yloxy)-1H-pyrazol-1-yl)pyrimidine]",0.5 to 5 µM
9,"CCOc1nn(-c2ccc(C3CC3)cn2)c(C)c1C(O)c1ccccc1 (stereo not drawn) [example 177, (1-(5-cyclopropylpyridin-2-yl)-3-ethoxy-5-methyl-1H-pyrazol-4-yl)(phenyl)methanol]",0.0005 to 0.05 µM
10,"CCc1cnc(-n2nc(OC(C)C)c(Cc3ccccc3)c2C)nc1 [example 139, 2-(4-benzyl-3-isopropoxy-5-methyl-1H-pyrazol-1-yl)-5-ethylpyrimidine]",0.0005 to 0.05 µM
11,"CCc1cnc(-n2nc(OC(C)C)c(Cc3cccc(OC)c3)c2C)nc1 [example 102, 5-ethyl-2-(3-isopropoxy-4-(3-methoxybenzyl)-5-methyl-1H-pyrazol-1-yl)pyrimidine]",0.0005 to 0.05 µM
12,"CCc1cnc(-n2nc(OCCOCc3ccccc3)c(Cc3ccccc3)c2C)nc1 [example 103, 2-(4-benzyl-3-(2-(benzyloxy)ethoxy)-5-methyl-1H-pyrazol-1-yl)-5-ethylpyrimidine]",0.0005 to 0.05 µM
13,"CCOc1nn(-c2ccccn2)c2c1CCN(Cc1ccccc1)C2 [example 1, 6-benzyl-3-ethoxy-1-(pyridin-2-yl)-4,5,6,7-tetrahydro-1H-pyrazolo[3,4-c]pyridine]",> 5 µM
14,"COc1cc(C2CC2)cnc1-n1cc(Oc2ccccc2)c(OC(C)C)n1 [example 184, 5-cyclopropyl-2-(3-isopropoxy-4-phenoxy-1H-pyrazol-1-yl)-3-methoxypyridine]",0.0005 to 0.05 µM
15,"COc1cc(-c2ccc(C(C)(C)C)cc2)n(-c2ccccn2)n1 [example 146, 2-(5-(4-tert-butylphenyl)-3-methoxy-1H-pyrazol-1-yl)pyridine]",> 5 µM
16,"CCOc1nn(-c2ccc(C3CC3)cn2)c(C)c1C(=O)c1ccccc1 [example 151, (1-(5-cyclopropylpyridin-2-yl)-3-ethoxy-5-methyl-1H-pyrazol-4-yl)(phenyl)methanone]",0.05 to 0.5 µM
17,"Cc1c(Oc2c(F)cccc2F)c(OC(C)C)nn1-c1ncc(C2CC2)cc1O [example 187, 5-cyclopropyl-2-(4-(2,6-difluorophenoxy)-3-isopropoxy-5-methyl-1H-pyrazol-1-yl)pyridin-3-ol]",0.0005 to 0.05 µM
18,"Cc1ccc(-n2nc(OC(C)C)c(Oc3c(F)cccc3F)c2C)nc1 [example 9A, 2-(4-(2,6-difluorophenoxy)-3-isopropoxy-5-methyl-1H-pyrazol-1-yl)-5-methylpyridine]",0.0005 to 0.05 µM
19,"CCOc1nn(-c2ccc(C3CC3)cn2)c(C)c1C(C)(O)c1ccccc1 (stereo not drawn) [example 178, 1-(1-(5-cyclopropylpyridin-2-yl)-3-ethoxy-5-methyl-1H-pyrazol-4-yl)-1-phenylethanol]",0.5 to 5 µM
20,"CCc1cnc(-n2nc(OC(C)C)c(Oc3ccc(F)cc3)c2C)nc1 [example 76, 5-ethyl-2-(4-(4-fluorophenoxy)-3-isopropoxy-5-methyl-1H-pyrazol-1-yl)pyrimidine]",0.05 to 0.5 µM
21,"COc1nn(-c2ccc(C)cn2)c(C)c1Cc1ccccc1 [example 137, 2-(4-benzyl-3-methoxy-5-methyl-1H-pyrazol-1-yl)-5-methylpyridine]",0.5 to 5 µM
22,"Cc1c(Cc2ccccc2F)c(OC(C)C)nn1-c1ccc(C2CC2)cn1 [example 90, 5-cyclopropyl-2-(4-(2-fluorobenzyl)-3-isopropoxy-5-methyl-1H-pyrazol-1-yl)pyridine]",0.05 to 0.5 µM

row,Structure (SMILES),MIC50
1,"COc1cc(C2CC2)cnc1-n1nc(OC(C)C)c(Oc2c(F)cccc2F)c1C [example 189, 5-cyclopropyl-2-(4-(2,6-difluorophenoxy)-3-isopropoxy-5-methyl-1H-pyrazol-1-yl)-3-methoxypyridine]",0.0005 to 0.05 µM
2,"CCOc1nn(-c2ccc(C(C)=O)cn2)c(C)c1Cc1ccccc1 [example 88, 1-(6-(4-benzyl-3-ethoxy-5-methyl-1H-pyrazol-1-yl)pyridin-3-yl)ethanone]",> 5 µM
3,"Cc1c(Oc2c(F)cccc2F)c(OC(C)C)nn1-c1ccc(C2CC2)cn1 [example 9, 5-cyclopropyl-2-(4-(2,6-difluorophenoxy)-3-isopropoxy-5-methyl-1H-pyrazol-1-yl)pyridine]",0.0005 to 0.05 µM
4,"Cc1c(Oc2c(F)cccc2F)c(OC(C)C)nn1-c1ncc(C2CC2)cc1C#N [example 46, 5-cyclopropyl-2-(4-(2,6-difluorophenoxy)-3-isopropoxy-5-methyl-1H-pyrazol-1-yl)nicotinonitrile]",0.0005 to 0.05 µM
5,"CCOc1nn(-c2ncc(CC)c(C)n2)c(C)c1Cc1ccccc1 [example 175, 2-(4-benzyl-3-ethoxy-5-methyl-1H-pyrazol-1-yl)-5-ethyl-4-methylpyrimidine]",0.0005 to 0.05 µM
6,"CCOc1nn(-c2ccccn2)cc1-c1ccc(Cl)cc1 [example 157, 2-(4-(4-chlorophenyl)-3-ethoxy-1H-pyrazol-1-yl)pyridine]",> 5 µM
7,"Cc1c(Oc2c(F)cccc2F)c(OC(C)C)nn1-c1ccc(C2CC2)nn1 [example 7, 3-cyclopropyl-6-(4-(2,6-difluorophenoxy)-3-isopropoxy-5-methyl-1H-pyrazol-1-yl)pyridazine]",0.0005 to 0.05 µM
8,"CCOc1nn(-c2ccc(C)nc2)c(C)c1Cc1ccccc1 [example 124, 5-(4-benzyl-3-ethoxy-5-methyl-1H-pyrazol-1-yl)-2-methylpyridine]",0.5 to 5 µM
9,"CC(C)Oc1nn(-c2ncc(C3CC3)cc2F)cc1Oc1ccccc1 [example 70, 5-cyclopropyl-3-fluoro-2-(3-isopropoxy-4-phenoxy-1H-pyrazol-1-yl)pyridine]",0.0005 to 0.05 µM
10,"CCOc1nn(-c2ccccn2)c(C)c1Cc1ccccc1Cl [example 162, 2-(4-(2-chlorobenzyl)-3-ethoxy-5-methyl-1H-pyrazol-1-yl)pyridine]",> 5 µM
11,"CCc1cnc(-n2nc(OC(C)C)c(Cc3ccccc3OC)c2C)nc1 [example 101, 5-ethyl-2-(3-isopropoxy-4-(2-methoxybenzyl)-5-methyl-1H-pyrazol-1-yl)pyrimidine]",0.0005 to 0.05 µM
12,"CCOc1nn(-c2ccccc2)c(C)c1Cc1ccccc1 [example 134, 4-benzyl-3-ethoxy-5-methyl-1-phenyl-1H-pyrazole]",0.5 to 5 µM
13,"CCCc1cnc(-n2nc(OC(C)C)c(Oc3c(F)cccc3F)c2C)nc1O [example 117A, 2-(4-(2,6-difluorophenoxy)-3-isopropoxy-5-methyl-1H-pyrazol-1-yl)-5-propylpyrimidin-4-ol]",0.05 to 0.5 µM
14,"CC(C)Oc1nn(-c2ncc(C3CC3)cn2)cc1[S+]([O-])c1ccccc1 (stereo not drawn) [example 182, 5-cyclopropyl-2-(3-isopropoxy-4-(phenylsulfinyl)-1H-pyrazol-1-yl)pyrimidine]",0.5 to 5 µM
15,"Cc1c(Oc2ccccc2F)c(OC(C)C)nn1-c1ccc(C2CC2)cn1 [example 69, 5-cyclopropyl-2-(4-(2-fluorophenoxy)-3-isopropoxy-5-methyl-1H-pyrazol-1-yl)pyridine]",0.0005 to 0.05 µM
16,"Cc1c(Oc2ccccc2F)c(OC(C)C)nn1-c1ncc(C2CC2)cc1C#N [example 52, 5-cyclopropyl-2-(4-(2-fluorophenoxy)-3-isopropoxy-5-methyl-1H-pyrazol-1-yl)nicotinonitrile]",0.05 to 0.5 µM
17,"Cc1c(Oc2c(F)cccc2F)c(OC(C)C)nn1-c1cnc(C(C)(C)C)nc1 [example 131, 2-tert-butyl-5-(4-(2,6-difluorophenoxy)-3-isopropoxy-5-methyl-1H-pyrazol-1-yl)pyrimidine]",0.05 to 0.5 µM
18,"CCOc1nn(-c2ccccn2)c(C)c1-c1ccc(C(F)(F)F)cc1 [example 159, 2-(3-ethoxy-5-methyl-4-(4-(trifluoromethyl)phenyl)-1H-pyrazol-1-yl)pyridine]",> 5 µM
19,"CCc1cnc(-n2nc(OC(C)C)c(Oc3c(F)cccc3F)c2C)c(F)c1 [example 5A, 2-(4-(2,6-difluorophenoxy)-3-isopropoxy-5-methyl-1H-pyrazol-1-yl)-5-ethyl-3-fluoropyridine]",0.05 to 0.5 µM
20,"Cc1c(Oc2c(F)cccc2F)c(OC(C)C)nn1-c1ncccn1 [example 74, 2-(4-(2,6-difluorophenoxy)-3-isopropoxy-5-methyl-1H-pyrazol-1-yl)pyrimidine]",0.5 to 5 µM
21,"Cc1c(Cc2ccccc2)c(O)nn1-c1ncc(C2CC2)cn1 [example 136, 4-benzyl-1-(5-cyclopropylpyrimidin-2-yl)-5-methyl-1H-pyrazol-3-ol]",0.5 to 5 µM
22,"CCOc1nn(-c2ccccn2)c(C)c1-c1cccc(Cl)c1 [example 156, 2-(4-(3-chlorophenyl)-3-ethoxy-5-methyl-1H-pyrazol-1-yl)pyridine]",> 5 µM

# Same assay, conditions: Measles morbillivirus, HEK-293T, read-out: IC50 on the measles virus
row,Structure (SMILES),IC50
1,"Cc1c(-c2ccc(-c3ccccc3F)cc2)nc2ccc(F)cc2c1C(=O)O [brequinar, reference compound]",40 nM
